# Reference: patent US10004678B2, “Anti-dandruff compositions, and methods of use thereof” (LUCAS MEYER COSMETICS CANADA INC., priority 2013, dated 2018)
# What was measured:
# Type in all cases: cell-based
# Conditions in all cases: w/v concentration, 0.25% is 2.5 g (dry weight)/L
# [1] = tested on: M. furfur (strain 1634.86, Pasteur Institute); test: Malassezia species growth inhibition (MIC), M. furfur
# Description: (§1) Determination of the effectiveness of the solution prepared as described in Example 1 on 3 different Malassezia species was determined by measuring the lowest concentration of a molecule for which there is no visible growth of the microorganism strain (MIC). The Malassezia species used were M. furfur (strain 1634.86, Pasteur Institute), M. globose (strain IP 2387.96, Pasteur Institute), and M. restricta (strain 7877, Centralbureau voor Schimmerlcultures). Results are presented as a w/v concentration—i.e., 0.04% is 0.4 g/L; 0.078% is 0.78 g/L, 0.156% is 1.56 g/L and 0.25% is 2.5 g (dry weight)/L.
# [2] = tested on: M. globosa (strain IP 2387.96, Pasteur Institute); test: Malassezia species growth inhibition (MIC), M. globosa
# Description: as §1
# [3] = tested on: M. restricta (strain 7877, Centralbureau voor Schimmerlcultures); test: Malassezia species growth inhibition (MIC), M. restricta
# Description: as §1
Structure (SMILES),MIC (lowest concentration with no visible growth) [1] [%],MIC (lowest concentration with no visible growth) [2] [%],MIC (lowest concentration with no visible growth) [3] [%]
Cc1cc(CC(C)CC(C)(C)C)n(O)c(=O)c1.NCCO (stereo not drawn) [Piroctone olamine],0.078,0.156,0.156
S=[Se]=S [Selenium disulfide],0.04,0.04,0.04
